Assay results from paper PMC6831664, “Synthesis of new isoquinoline-base-oxadiazole derivatives as potent inhibitors of thymidine phosphorylase and molecular docking study” (Scientific Reports, 2019).

biological target: thymidine phosphorylase (Escherichia coli, UniProt P07650); experiment: In vitro thymidine phosphorylase inhibition (spectrophotometric, absorbance at 290 nm); format: biochemical, human and E. coli; conditions: not given
Description: The desired activity of thymidine phosphorylase under this protocol was carried out with slight modification in the method described by Krenitsky and Bush in 1979[46],[47]. Here, TP activity was determined through spectrophotometrically by absorbance at 290 nm. Although the whole reaction mixture of 200 µL have the limit of 145 µL of potassium phosphate buffer (pH 7.4, 50 mM), 30 µL of enzyme (human and E. coli) by concentration 0.05 and 0.002 U, distinectly, followed by incubation through 5 µL of test materials (0.075, 0.15, 0.3 and 0.5 mM) at 25 °C for 10 min in triplet reader. Subsequently, pre-read at 290 nm was taken to conclude the absorbance of concern substrate particles. The crave substrate “thyimidin” (20 µL, 1.5 mM), was then dissolved in the buffer (potassium phosphate), followed by instant addition to plate with constant read after every 10, 20 and 30 min in micro plate reader (spectra max, molecular devices, CA, USA). All the assay were implemented in triplicate under positive control of 7-Deazxanthine.

thymidine phosphorylase, sequence (P07650 whole entry): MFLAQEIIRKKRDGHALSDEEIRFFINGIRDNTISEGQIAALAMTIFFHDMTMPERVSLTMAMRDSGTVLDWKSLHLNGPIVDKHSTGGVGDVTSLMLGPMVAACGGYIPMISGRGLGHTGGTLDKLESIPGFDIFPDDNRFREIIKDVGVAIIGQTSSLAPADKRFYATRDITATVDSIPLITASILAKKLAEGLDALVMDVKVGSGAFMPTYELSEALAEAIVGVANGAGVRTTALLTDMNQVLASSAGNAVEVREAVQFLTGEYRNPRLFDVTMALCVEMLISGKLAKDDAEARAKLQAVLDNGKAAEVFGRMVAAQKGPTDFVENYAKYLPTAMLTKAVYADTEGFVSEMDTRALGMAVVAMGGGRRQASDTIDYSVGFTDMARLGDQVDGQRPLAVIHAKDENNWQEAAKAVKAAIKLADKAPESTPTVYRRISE

How did the “inhibitory potential compared with the standard 7-Deazaxanthine (in words)” value turn out when `O=C(NN=Cc1c2ccccc2cc2ccccc12)c1ccc(-c2nnc(-c3cc4ccccc4cn3)o2)cc1` [analogue 2, N’-(anthracen-9-ylmethylene)-4-(5-(isoquinolin-3-yl)-1,3,4-oxadiazol-2-yl)benzohydrazide] was run?
Its value is “good inhibitory activity”.

With `COc1cc(C=NNC(=O)c2ccc(-c3nnc(-c4cc5ccccc5cn4)o3)cc2)cc(OC)c1OC` [analogue 15, 4-(5-(isoquinolin-3-yl)-1,3,4-oxadiazol-2-yl)-N’-(3,4,5-trimethoxybenzylidene)benzohydrazide] as the compound, how does the “inhibitory potential compared with the standard 7-Deazaxanthine (in words)” value read?
The value was “good inhibitory activity”.

How did the “inhibitory potential compared with the standard 7-Deazaxanthine (in words)” value turn out when `COc1ccc(C=NNC(=O)c2ccc(-c3nnc(-c4cc5ccccc5cn4)o3)cc2)c(OC)c1OC` [analogue 19, 4-(5-(isoquinolin-3-yl)-1,3,4-oxadiazol-2-yl)-N’-(2,3,4-trimethoxybenzylidene)benzohydrazide] was run?
Its value is “good inhibitory activity”.

same assay, conditions: read-out: IC50 value, thymidine phosphorylase inhibitory activity

With `O=C(NN=Cc1ccccc1[N+](=O)[O-])c1ccc(-c2nnc(-c3cc4ccccc4cn3)o2)cc1` [analogue 1, 4-(5-(isoquinolin-3-yl)-1,3,4-oxadiazol-2-yl)-N’-(2-nitrobenzylidene)benzohydrazide] as the compound, how does the IC50 read?
Its IC50 is 6.3 ± 0.2 µM.

For `O=C(NN=Cc1c2ccccc2cc2ccccc12)c1ccc(-c2nnc(-c3cc4ccccc4cn3)o2)cc1` [analogue 2, N’-(anthracen-9-ylmethylene)-4-(5-(isoquinolin-3-yl)-1,3,4-oxadiazol-2-yl)benzohydrazide], which IC50 is on record?
Its IC50 is 39.4 ± 0.9 µM.

With `O=C(NN=Cc1ccc(Cl)cc1Cl)c1ccc(-c2nnc(-c3cc4ccccc4cn3)o2)cc1` [analogue 3, N’-(2,4-dichlorobenzylidene)-4-(5-(isoquinolin-3-yl)-1,3,4-oxadiazol-2-yl)benzohydrazide] as the compound, how does the IC50 read?
The IC50 was 3.3 ± 0.1 µM.

With `O=C(NN=Cc1ccc(COc2ccccc2)cc1)c1ccc(-c2nnc(-c3cc4ccccc4cn3)o2)cc1` [analogue 4, 4-(5-(isoquinolin-3-yl)-1,3,4-oxadiazol-2-yl)-N’-(4-(phenoxymethyl)benzylidene)benzohydrazide] as the compound, how does the IC50 read?
The IC50 was 28.3 ± 0.5 µM.

Which IC50 does the source give for `CC(=NNC(=O)c1ccc(-c2nnc(-c3cc4ccccc4cn3)o2)cc1)c1ccc([N+](=O)[O-])cc1` [analogue 5, 4-(5-(isoquinolin-3-yl)-1,3,4-oxadiazol-2-yl)-N’-(1-(4-nitrophenyl)ethylidene)benzohydrazide] here?
The IC50 was 14.6 ± 0.4 µM.

How did the IC50 turn out when `O=C(NN=Cc1ccc(Cl)cc1)c1ccc(-c2nnc(-c3cc4ccccc4cn3)o2)cc1` [analogue 6, N’-(4-chlorobenzylidene)-4-(5-(isoquinolin-3-yl)-1,3,4-oxadiazol-2-yl)benzohydrazide] was run?
Its IC50 is 16.4 ± 0.5 µM.

For `COc1ccc(Br)cc1C=NNC(=O)c1ccc(-c2nnc(-c3cc4ccccc4cn3)o2)cc1` [analogue 7, N’-(5-bromo-2-methoxybenzylidene)-4-(5-(isoquinolin-3-yl)-1,3,4-oxadiazol-2-yl)benzohydrazide], which IC50 is on record?
Its IC50 is 36.7 ± 0.9 µM.

With `CN(C)c1ccc(C=NNC(=O)c2ccc(-c3nnc(-c4cc5ccccc5cn4)o3)cc2)cc1` [analogue 8, N’-(4-(dimethylamino)benzylidene)-4-(5-(isoquinolin-3-yl)-1,3,4-oxadiazol-2-yl)benzohydrazide] as the compound, how does the IC50 read?
Its IC50 is 18.8 ± 0.5 µM.

`O=C(NN=Cc1cc(Cl)cc(Cl)c1O)c1ccc(-c2nnc(-c3cc4ccccc4cn3)o2)cc1` [analogue 9, N’-(3,5-dichloro-2-hydroxybenzylidene)-4-(5-(isoquinolin-3-yl)-1,3,4-oxadiazol-2-yl)benzohydrazide] was tested. Which IC50 did it give?
Its IC50 is 2.4 ± 0.1 µM.

`Nc1cccc(C=NNC(=O)c2ccc(-c3nnc(-c4cc5ccccc5cn4)o3)cc2)c1` [analogue 10, N’-(3-aminobenzylidene)-4-(5-(isoquinolin-3-yl)-1,3,4-oxadiazol-2-yl)benzohydrazide] was tested. Which IC50 did it give?
Its IC50 is 1.1 ± 0.1 µM.

Which IC50 does the source give for `COc1cc(C=NNC(=O)c2ccc(-c3nnc(-c4cc5ccccc5cn4)o3)cc2)cc(OC)c1O` [analogue 11, N’-(4-hydroxy-3,5-dimethoxybenzylidene)-4-(5-(isoquinolin-3-yl)-1,3,4-oxadiazol-2-yl)benzohydrazide] here?
Its IC50 is 5.3 ± 0.2 µM.

Which IC50 does the source give for `COc1ccc(C=NNC(=O)c2ccc(-c3nnc(-c4cc5ccccc5cn4)o3)cc2)cc1O` [analogue 12, N’-(3-hydroxy-4-methoxybenzylidene)-4-(5-(isoquinolin-3-yl)-1,3,4-oxadiazol-2-yl)benzohydrazide] here?
The IC50 was 4.6 ± 0.1 µM.

With `COc1cc(C=NNC(=O)c2ccc(-c3nnc(-c4cc5ccccc5cn4)o3)cc2)ccc1O` [analogue 13, N’-(4-hydroxy-3-methoxybenzylidene)-4-(5-(isoquinolin-3-yl)-1,3,4-oxadiazol-2-yl)benzohydrazide] as the compound, how does the IC50 read?
Its IC50 is 6 ± 0.2 µM.

`N#Cc1cccc(C=NNC(=O)c2ccc(-c3nnc(-c4cc5ccccc5cn4)o3)cc2)c1` [analogue 14, N’-(3-cyanobenzylidene)-4-(5-(isoquinolin-3-yl)-1,3,4-oxadiazol-2-yl)benzohydrazide] was tested. Which IC50 did it give?
Its IC50 is 27.4 ± 0.7 µM.

`COc1cc(C=NNC(=O)c2ccc(-c3nnc(-c4cc5ccccc5cn4)o3)cc2)cc(OC)c1OC` [analogue 15, 4-(5-(isoquinolin-3-yl)-1,3,4-oxadiazol-2-yl)-N’-(3,4,5-trimethoxybenzylidene)benzohydrazide] was tested. Which IC50 did it give?
Its IC50 is 47.3 ± 1.2 µM.

How did the IC50 turn out when `N#Cc1ccccc1C=NNC(=O)c1ccc(-c2nnc(-c3cc4ccccc4cn3)o2)cc1` [analogue 16, N’-(2-cyanobenzylidene)-4-(5-(isoquinolin-3-yl)-1,3,4-oxadiazol-2-yl)benzohydrazide] was run?
Its IC50 is 18.5 ± 0.5 µM.

`N#Cc1ccc(C=NNC(=O)c2ccc(-c3nnc(-c4cc5ccccc5cn4)o3)cc2)cc1` [analogue 17, N’-(4-cyanobenzylidene)-4-(5-(isoquinolin-3-yl)-1,3,4-oxadiazol-2-yl)benzohydrazide] was tested. Which IC50 did it give?
The IC50 was 22.1 ± 0.5 µM.

Which IC50 does the source give for `COc1cccc(C=NNC(=O)c2ccc(-c3nnc(-c4cc5ccccc5cn4)o3)cc2)c1O` [analogue 18, N’-(2-hydroxy-3-methoxybenzylidene)-4-(5-(isoquinolin-3-yl)-1,3,4-oxadiazol-2-yl)benzohydrazide] here?
The IC50 was 7.3 ± 0.2 µM.

With `COc1ccc(C=NNC(=O)c2ccc(-c3nnc(-c4cc5ccccc5cn4)o3)cc2)c(OC)c1OC` [analogue 19, 4-(5-(isoquinolin-3-yl)-1,3,4-oxadiazol-2-yl)-N’-(2,3,4-trimethoxybenzylidene)benzohydrazide] as the compound, how does the IC50 read?
The IC50 was 54.6 ± 1.5 µM.

For `O=C(NN=Cc1ccc(O)c(O)c1O)c1ccc(-c2nnc(-c3cc4ccccc4cn3)o2)cc1` [analogue 20, 4-(5-(isoquinolin-3-yl)-1,3,4-oxadiazol-2-yl)-N’-(2,3,4-trihydroxybenzylidene)benzohydrazide], which IC50 is on record?
The IC50 was 1.1 ± 0.05 µM.
